Like-named read-outs stand apart in the source and are kept apart here. Each block holds one molecule with its values, some of them ahead of it.
Experiments:
[1] = contrast media solutions; cited from earlier work
[2] = format: physicochemical; conditions: for Iodide formed: 50 mM agent, 10 mM TRIS
Protocol: (§1) The lamps were switched on and the solutions irradiated for 18 to 24 hours for the ultraviolet (UV) lamps or 72 to 90 hours for the visible (VIS) light lamps. At the end of the selected irradiation time, the cuvettes were removed from the photolysis chamber and mixed by inversion 2-times. The caps were then removed and 40 microliter aliquots taken and diluted with 1 mL of an aqueous solution containing ˜0.9 mg/mL sodium thiosulfate. The thiosulfate solution converted any I2, IO3^−, and I3^− present in the solution tor such that total iodine species could be determined in one assay.
(§2) The diluted solutions were assayed by high pressure liquid chromatography (HPLC) using a 4.6×250 mm, C-18, 5 micron particle size, reversed phase column with detection at 280 nm for the contrast agent and 230 nm for the thiosulfate and the iodide ion (r). A mobile phase of 30:70 methanol:aqueous buffer (50 mM KH2PO4+7 mL/L 40% tetrabutyl ammonium hydroxide) at 0.75 mL/min was used for elution. Injection volume was 20 microliters. External standards were prepared containing each contrast agent, potassium iodide, and sodium thiosulfate solution and analyzed along with the irradiated samples. The results were reported as weight percentage iodide formed (mg iodide/mg contrast agent times 100).
(§3) Aqueous solutions were prepared containing 50 mM iodinated contrast agent, 10 mM tromethamine HCl buffer (TRIS), with and without sulfobutylether beta-cyclodextrin with an average degree of substitution-7 (SBE7-β-CD), or 2-hydroxypropyl beta-cyclodextrin with an average degree of substitution of ˜6.3 (HP6.3-β-CD) or ˜4.3 (HP4.3-β-CD). The iohexol solution was prepared by dissolving solid iohexol powder while the other solutions were prepared by diluting commercial formulated products and adding sufficient TRIS buffer to reach 10 mM. The pH of the solutions was adjusted to 7.4 with 0.1N hydrochloric acid.
(§4) Aliquots of the solutions were irradiated with visible light for 72 hours (0.52 million lux hours). Other aliquots were autoclaved for 20 minutes at 121° C., cooled to room temperature and then irradiated with ultraviolet light for 18 hours (119 watt hours/m2). The solutions were then processed, analyzed and reported as in Example 2, except that the chromatographic peaks of the contrast agents were evaluated at 300 nm for both samples and standards.
Aqueous solutions were prepared containing 50 mM iohexol, 0, 2.5, 5, 7.5, or 10 mM tromethamine HCl (TRIS) buffer, with and without 2.5 mM sulfobutylether beta-cyclodextrin with an average degree of substitution-7 (SBE7-β-CD). The pH of the solutions was adjusted to 7.4 with 0.1N hydrochloric acid and the solutions were transferred to glass vials. The vials were stoppered, crimp-capped and autoclaved for 20 minutes at 121° C. The pH of the autoclaved solutions was measured after the solutions were at room temperature.
Aliquots of the autoclaved solutions were irradiated with visible light for 72 hours (0.52 million lux hours) and other aliquots irradiated with ultraviolet light for 18 hours (119 watt hours/m2). The solutions were then processed, analyzed and reported as in Example 2, except that the chromatographic peak of the iohexol was evaluated at 300 nm for both samples and standards.
Aqueous formulations were prepared containing iodinated contrast agents at concentrations used commercially in medical procedures. Sulfobutylether-cyclodextrin, sodium salt, average degree of substitution ˜7 (SBE7CD) was added at varying agent:CD mole ratios. The formulations were placed in glass vials, sealed with rubber stoppers and aluminum crimps, and autoclaved at 121° C. for 20 minutes. […]

[3] = Photostability: iodide formed after visible light irradiation; format: physicochemical; conditions: 10 mM TRIS; for Iodide formed: 50 mM agent, pH 7.4, VIS 72 h
Protocol: (§5) Aqueous solutions comprising iodinated contrast agents were prepared and evaluated in a photolysis chamber as described in the ICH guidance document, Q1B Photostability Testing of New Drug Substances and Products, available from the US Food and Drug Administration, incorporated herein by reference. The solutions were placed in 1 cm×1 cm (3 mL) quartz cuvettes having 2 clear sides and 2 sides etched. Lids were placed on the cuvettes and sealed with a wrap of Parafilm® around the joint. The cuvettes were placed in a photolysis chamber, upright on a flat surface beneath and centered between two horizontal 24 inch fluorescent lamps, (GE, black light F20T12, 20 watt for ultraviolet, or Philips F20T12/CW, 20 watt for visible) placed 6 cm apart. The cuvettes were positioned such that their two clear sides were facing the two lamps.
(§6) Cuvettes were spaced ˜2 cm from each other, and no closer than 15 cm from the ends of the lamps. This positioning allowed reproducible light exposure to all cuvettes.
as §1, §2
(§7) The absorbance readings at 400 nm due to light exposure were plotted against time of exposure and the resulting correlation used to determine the UV and VIS light exposure. A change in absorbance reading of 0.45 was assumed equivalent to 200 watt hours/square meter for the UV light and a change of 0.51 was assumed equivalent to 1.2 million lux hours for the VIS light. The UV lamps provided 6.62 watts/square meter and the VIS lamps provided 7180 lux.
Aqueous solutions were prepared containing 473 mM iohexol (180 mg 1/mL), 10 mM tromethamine HCl buffer (TRIS), with and without various SCDs. The pH of the solutions was adjusted to 7.4 with 0.1N hydrochloric acid. Aliquots of the solutions were irradiated with ultraviolet (UV) light for 18 hours (119 watt hours/m^2) and other aliquots irradiated with visible (VIS) light for 90 hours (0.65 million lux hours). The solutions were then processed, analyzed and reported as in Example 2, with the exception that the iohexol peak was measured at 300 nm for both samples and standards. Results of the study are presented in the table below along with the SCD used. The SCDs included derivatives prepared from alpha, beta, and gamma CD to evaluate the effect of CD cavity size. Various substituents, including one derivative containing more than one type of substituent, and degrees of substitution (DS) were also evaluated.
Aqueous solutions were prepared containing 50 mM iodinated contrast agent, 10 mM tromethamine HCl buffer (TRIS), with and without sulfobutylether beta-cyclodextrin with an average degree of substitution-7 (SBE7-β-CD), or 2-hydroxypropyl beta-cyclodextrin with an average degree of substitution of ˜6.3 (HP6.3-β-CD) or ˜4.3 (HP4.3-β-CD). […]

[4] = format: physicochemical
Protocol: as §1, §2, §3
as §4, with “standards. […]” for “standards.”
Aqueous formulations were prepared containing iodinated contrast agents at concentrations used commercially in medical procedures. Sulfobutylether-cyclodextrin, sodium salt, average degree of substitution ˜7 (SBE7CD) was added at varying agent:CD mole ratios. The formulations were placed in glass vials, sealed with rubber stoppers and aluminum crimps, and autoclaved at 121° C. for 20 minutes. Aliquots of the autoclaved solutions were exposed to UV light for 24 hours (159 watt hours/m^2 or VIS light for 72 hours (0.52 million lux hours) as in Example 2. The solutions were then processed, analyzed and reported as in Example 2, with the following two exceptions; 1) the chromatographic peaks of the contrast agents were evaluated at 300 nm for both samples and standards, and 2) only 20 microliter sample aliquots were taken and diluted for HPLC analysis due to the higher concentrations used in this study. Results of the study are presented in the table below along with the solution compositions.

[5] = Photostability: iodide formed after UV light irradiation; format: physicochemical; conditions: 473 mM iohexol, 10 mM TRIS, pH 7.4, UV 18 h
Protocol: as §5, §6, §1, §2, §7
Aqueous solutions were prepared containing 50 mM contrast agent by diluting commercially available solutions with water. Tromethamine HCl buffer (TRIS), was added to solutions as necessary to increase the TRIS content to that of the commercial product before dilution.
SCD was added to the solutions at various mole ratios and the pH of the solutions adjusted to 7.4 with 0.1N hydrochloric acid or 0.1N sodium hydroxide. The solutions were irradiated with UV light for 18 hours (119 watt hours/m^2) then processed, analyzed and reported as in Example 2. The SCDs evaluated were sulfobutyl ether beta-cyclodextrin with an average degree of substitution of 7 (SBE-704CD), and two 2-hydroxypropyl beta-cyclodextrin derivatives having 6.3 (HP-6.3n/CD) and 4.3 (HP-4.3-βCD) average degrees of substitution.
Aqueous solutions were prepared containing 50 mM contrast agent by diluting commercially available solutions with distilled water. Tromethamine HCl buffer (TRIS), was added to some solutions to increase the buffer content.
The solutions were divided and SBE-7-CD added to one aliquot at a contrast agent:SCD mole ratio of 1:1. The pH of the solutions was adjusted to 5, 6, 7, 7.4 or 8 with 0.1N hydrochloric acid or sodium hydroxide. […]

[6] = pH 7.4, autoclaved then UV 18 h, agent:SBE7-β-CD 1:0.1
[7] = pH 7.4, autoclaved then UV 18 h, no SCD (1:0)

Molecule: CNC(=O)c1c(I)c(NC(C)=O)c(I)c(C(=O)O)c1I [iothalamate sodium]
degradation in solution after exposure to ultraviolet light [1]: formation of iodine and iodide ions

Iodide formed [2, 6]: 0.332 wt % | Iodide formed [2, 7]: 0.392 wt % | Iodide Formed, UV ([2]; Ioxaglate 320 mg I/mL, pH 7.0, agent:SBE7CD 1:0.05, autoclaved then UV 24 h): 0.0845 wt % | Iodide Formed, VIS ([2]; Ioxaglate 320 mg I/mL, pH 7.0, agent:SBE7CD 1:0.05, autoclaved then VIS 72 h): 0.0175 wt % | Iodide Formed, UV ([2]; Ioxaglate 320 mg I/mL, pH 7.0, no SCD (1:0), autoclaved then UV 24 h): 0.114 wt % | Iodide Formed, VIS ([2]; Ioxaglate 320 mg I/mL, pH 7.0, no SCD (1:0), autoclaved then VIS 72 h): 0.0197 wt % | Iodide formed ([3]; agent:SBE7-β-CD 1:0.1): 0.211 wt % | Iodide formed ([3]; no SCD (1:0)): 0.231 wt % | Iodide Formed, Autoclaved ([4]; Ioxaglate 320 mg I/mL (393 mg ioxaglate meglumine and 196 mg ioxaglate sodium), pH 7.0, no SCD (1:0)): 0.00457 wt % | Iodide Formed, Autoclaved ([4]; Ioxaglate 320 mg I/mL, pH 7.0, agent:SBE7CD 1:0.05): 0.00329 wt %
Molecule: CNC(=O)c1c(I)c(C(=O)NCC(=O)Nc2c(I)c(C(=O)O)c(I)c(C(=O)NCCO)c2I)c(I)c(N(C)C(C)=O)c1I [Ioxaglate, ioxaglate]

Molecule: sulfobutylether 3.5-ethylether 3.5-beta-cyclodextrin [SBE-EE-βCD]
I- formed, UV ([5]; iohexol:SCD 1:0.05): 0.0825 wt % | % Change in iodide degradants (UV) ([5]; iohexol:SCD 1:0.05 vs control): −22.9% (UV) | I- formed, VIS ([3]; 473 mM iohexol, pH 7.4, VIS 90 h, iohexol:SCD 1:0.05): 0.0584 wt % | % Change in iodide degradants (Vis) ([3]; 473 mM iohexol, pH 7.4, VIS 90 h, iohexol:SCD 1:0.05 vs control): −5.3% (Vis)

Iodide formed [2, 6]: 0.470 wt % | Iodide formed [2, 7]: 0.540 wt % | Iodide formed ([2]; pH 7.4, autoclaved then visible light, agent:SBE7-β-CD 1:0.1): 0.344 wt % | Iodide formed ([2]; pH 7.4, autoclaved then visible light, no SCD (1:0)): 0.348 wt % | Iodide Formed, UV ([2]; Iopamidol 200 mg I/mL, pH 7, agent:SBE7CD 1:0.05, autoclaved then UV 24 h): 0.145 wt % | Iodide Formed, VIS ([2]; Iopamidol 200 mg I/mL, pH 7, agent:SBE7CD 1:0.05, autoclaved then VIS 72 h): 0.0574 wt % | Iodide Formed, UV ([2]; Iopamidol 200 mg I/mL, pH 7, no SCD (1:0), autoclaved then UV 24 h): 0.150 wt % | Iodide Formed, VIS ([2]; Iopamidol 200 mg I/mL, pH 7, no SCD (1:0), autoclaved then VIS 72 h): 0.0570 wt % | Iodide formed ([3]; agent:SBE7-β-CD 1:0.1): 0.355 wt % | Iodide formed ([3]; no SCD (1:0)): 0.356 wt % | Iodide Formed, Autoclaved ([4]; Iopamidol 200 mg I/mL, pH 7, agent:SBE7CD 1:0.05): 0.00338 wt % | Iodide Formed, Autoclaved ([4]; Iopamidol 200 mg I/mL, pH 7, no SCD (1:0)): 0.00347 wt %
Molecule: C[C@H](O)C(=O)Nc1c(I)c(C(=O)NC(CO)CO)c(I)c(C(=O)NC(CO)CO)c1I [Iopamidol, iopamidol]
stabilization against degradation from autoclaving+visible light irradiation [2]: stabilized all formulations except iopamidol

From patent publication US20220096664A1, “STABILIZED FORMULATIONS CONTAINING IODINATED CONTRAST AGENTS AND CYCLODEXTRINS” (Verrow Pharmaceuticals, Inc., priority 2012, published 2022)
